Data published in PubChem BioAssay (NCI).
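Method: 48-hour compound exposure of cells in 96-well plates, five concentrations, linear interpolation of endpoints. TGI: concentration producing complete growth inhibition.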

Key:
Test in all cases: growth of human tumour cells (NCI), 48 h
M14 melanoma = tested on: M14 melanoma
SF-268 CNS = tested on: SF-268 CNS
TK-10 renal = tested on: TK-10 renal
SN12C renal = tested on: SN12C renal
HL-60(TB) leukemia = tested on: HL-60(TB) leukemia
MDA-MB-231 breast = tested on: MDA-MB-231 breast
HOP-62 NSCLC = tested on: HOP-62 NSCLC
EKVX NSCLC = tested on: EKVX NSCLC
SF-295 CNS = tested on: SF-295 CNS
MOLT-4 leukemia = tested on: MOLT-4 leukemia
SNB-75 CNS = tested on: SNB-75 CNS
CCRF-CEM leukemia = tested on: CCRF-CEM leukemia
A549 NSCLC = tested on: A549 NSCLC
UACC-62 melanoma = tested on: UACC-62 melanoma
T-47D breast = tested on: T-47D breast
CAKI-1 renal = tested on: CAKI-1 renal
786-0 renal = tested on: 786-0 renal
COLO 205 colon = tested on: COLO 205 colon
IGROV1 ovarian = tested on: IGROV1 ovarian
PC-3 prostate = tested on: PC-3 prostate
OVCAR-8 ovarian = tested on: OVCAR-8 ovarian
NCI-H23 lung = tested on: NCI-H23 lung
SK-MEL-5 melanoma = tested on: SK-MEL-5 melanoma
HCT-15 colon = tested on: HCT-15 colon
MCF7 breast = tested on: MCF7 breast
K-562 leukemia = tested on: K-562 leukemia
MALME-3M melanoma = tested on: MALME-3M melanoma
HCC-2998 colon = tested on: HCC-2998 colon
RPMI-8226 leukemia = tested on: RPMI-8226 leukemia
RXF 393 renal = tested on: RXF 393 renal
HT29 colon = tested on: HT29 colon
DU-145 prostate = tested on: DU-145 prostate
SK-MEL-28 melanoma = tested on: SK-MEL-28 melanoma
MDA-N = tested on: MDA-N
SW-620 colon = tested on: SW-620 colon
SR leukemia = tested on: SR leukemia
SK-OV-3 ovarian = tested on: SK-OV-3 ovarian
UACC-257 melanoma = tested on: UACC-257 melanoma
KM12 colon = tested on: KM12 colon
NCI-H460 lung = tested on: NCI-H460 lung
A498 renal = tested on: A498 renal
MDA-MB-435 = tested on: MDA-MB-435
ACHN renal = tested on: ACHN renal
UO-31 renal = tested on: UO-31 renal
U251 CNS = tested on: U251 CNS
SNB-19 CNS = tested on: SNB-19 CNS
HS 578T breast = tested on: HS 578T breast
HCT-116 colon = tested on: HCT-116 colon
BT-549 breast = tested on: BT-549 breast
SK-MEL-2 melanoma = tested on: SK-MEL-2 melanoma
NCI/ADR-RES ovarian = tested on: NCI/ADR-RES ovarian
OVCAR-4 ovarian = tested on: OVCAR-4 ovarian
SF-539 CNS = tested on: SF-539 CNS
OVCAR-3 ovarian = tested on: OVCAR-3 ovarian
LOX IMVI melanoma = tested on: LOX IMVI melanoma
OVCAR-5 ovarian = tested on: OVCAR-5 ovarian
NCI-H522 lung = tested on: NCI-H522 lung
HOP-92 NSCLC = tested on: HOP-92 NSCLC

With `N#Cc1ccc(NC(=NCC(=O)O)Nc2ccc3ccccc3c2)cc1` the TGI (M14 melanoma) was > 10 µM, the TGI (SF-268 CNS) was > 10 µM and the TGI (TK-10 renal) was > 10 µM. For the same molecule, the TGI (SN12C renal) was > 10 µM, the TGI (HL-60(TB) leukemia) was > 10 µM and the TGI (MDA-MB-231 breast) was > 10 µM. For the same molecule, the TGI (HOP-62 NSCLC) was > 10 µM, the TGI (EKVX NSCLC) was > 10 µM and the TGI (SF-295 CNS) was > 10 µM. For the same molecule, the TGI (MOLT-4 leukemia) was > 10 µM, the TGI (SNB-75 CNS) was > 10 µM and the TGI (CCRF-CEM leukemia) was > 10 µM. The TGI (A549 NSCLC) was > 10 µM, the TGI (UACC-62 melanoma) was > 10 µM and the TGI (T-47D breast) was > 10 µM. For the same molecule, the TGI (CAKI-1 renal) was > 10 µM, the TGI (786-0 renal) was > 10 µM and the TGI (COLO 205 colon) was > 10 µM. For the same molecule, the TGI (IGROV1 ovarian) was > 10 µM, the TGI (PC-3 prostate) was > 10 µM and the TGI (OVCAR-8 ovarian) was > 10 µM. For the same molecule, the TGI (NCI-H23 lung) was > 10 µM, the TGI (SK-MEL-5 melanoma) was > 10 µM and the TGI (HCT-15 colon) was > 10 µM. For the same molecule, the TGI (MCF7 breast) was > 10 µM, the TGI (K-562 leukemia) was > 10 µM and the TGI (MALME-3M melanoma) was > 10 µM. For the same molecule, the TGI (HCC-2998 colon) was > 10 µM, the TGI (RPMI-8226 leukemia) was > 10 µM and the TGI (RXF 393 renal) was > 10 µM. The TGI (HT29 colon) was > 10 µM, the TGI (DU-145 prostate) was > 10 µM and the TGI (SK-MEL-28 melanoma) was > 10 µM. The TGI (MDA-N) was > 10 µM, the TGI (SW-620 colon) was > 10 µM and the TGI (SR leukemia) was > 10 µM. For the same molecule, the TGI (SK-OV-3 ovarian) was > 10 µM, the TGI (UACC-257 melanoma) was > 10 µM and the TGI (KM12 colon) was > 10 µM.

`CSc1nc(Cl)c2c(n1)Sc1ncnn1C2O` (stereo unspecified) was tested, and the TGI (NCI-H460 lung) was 46.4 µM, the TGI (A498 renal) was 38.1 µM and the TGI (M14 melanoma) was 29 µM. For the same molecule, the TGI (MDA-MB-435) was 15.9 µM, the TGI (SF-268 CNS) was 26.7 µM and the TGI (TK-10 renal) was 31.2 µM. For the same molecule, the TGI (SN12C renal) was 24 µM, the TGI (HL-60(TB) leukemia) was 14.8 µM and the TGI (MDA-MB-231 breast) was 31.6 µM. For the same molecule, the TGI (HOP-62 NSCLC) was 41.1 µM, the TGI (EKVX NSCLC) was 36.3 µM and the TGI (ACHN renal) was 15.4 µM. It also gave a TGI (UO-31 renal) of 5.24 µM, a TGI (MOLT-4 leukemia) of 27.1 µM and a TGI (U251 CNS) of 33.9 µM. The TGI (CCRF-CEM leukemia) was 10.9 µM, the TGI (SNB-19 CNS) was 45.2 µM and the TGI (A549 NSCLC) was 36.9 µM. The TGI (UACC-62 melanoma) was 26.3 µM, the TGI (HS 578T breast) was 23.2 µM and the TGI (HCT-116 colon) was 17.1 µM. For the same molecule, the TGI (CAKI-1 renal) was 25.4 µM, the TGI (BT-549 breast) was 28.8 µM and the TGI (SK-MEL-2 melanoma) was 41.8 µM. For the same molecule, the TGI (786-0 renal) was 9.08 µM, the TGI (COLO 205 colon) was 62.7 µM and the TGI (IGROV1 ovarian) was 34.2 µM. For the same molecule, the TGI (PC-3 prostate) was 27.7 µM, the TGI (OVCAR-8 ovarian) was 15.7 µM and the TGI (NCI/ADR-RES ovarian) was 54.6 µM. It also gave a TGI (NCI-H23 lung) of 30.9 µM, a TGI (HCT-15 colon) of 18.4 µM and a TGI (MCF7 breast) of 16 µM. The TGI (OVCAR-4 ovarian) was 29.6 µM, the TGI (K-562 leukemia) was 30.6 µM and the TGI (MALME-3M melanoma) was 8.22 µM. It also gave a TGI (HCC-2998 colon) of 27.4 µM, a TGI (RXF 393 renal) of 5.63 µM and a TGI (HT29 colon) of 28.4 µM. For the same molecule, the TGI (SF-539 CNS) was 15.5 µM, the TGI (DU-145 prostate) was 19.2 µM and the TGI (SK-MEL-28 melanoma) was > 100 µM. For the same molecule, the TGI (MDA-N) was 20.5 µM, the TGI (SW-620 colon) was 36.3 µM and the TGI (SR leukemia) was > 100 µM. The TGI (OVCAR-3 ovarian) was 20.1 µM, the TGI (SK-OV-3 ovarian) was 42.2 µM and the TGI (LOX IMVI melanoma) was 21.1 µM. It also gave a TGI (OVCAR-5 ovarian) of 32.3 µM, a TGI (NCI-H522 lung) of 4.23 µM and a TGI (UACC-257 melanoma) of 45.7 µM. For the same molecule, the TGI (HOP-92 NSCLC) was 30.3 µM.
